IC50 and inhibition data for 22 compounds are collected here from patent US12404279B2, “Deubiquitinase inhibitors and methods of use thereof” (Molecure S.A., priority 2021, dated 2025).

The structures appear in SMILES notation. pIC50: −log10 of the molar value. Structures can show the parent of a compound that is named as a salt.

Sequence of full-length USP7 (Q93009 whole entry): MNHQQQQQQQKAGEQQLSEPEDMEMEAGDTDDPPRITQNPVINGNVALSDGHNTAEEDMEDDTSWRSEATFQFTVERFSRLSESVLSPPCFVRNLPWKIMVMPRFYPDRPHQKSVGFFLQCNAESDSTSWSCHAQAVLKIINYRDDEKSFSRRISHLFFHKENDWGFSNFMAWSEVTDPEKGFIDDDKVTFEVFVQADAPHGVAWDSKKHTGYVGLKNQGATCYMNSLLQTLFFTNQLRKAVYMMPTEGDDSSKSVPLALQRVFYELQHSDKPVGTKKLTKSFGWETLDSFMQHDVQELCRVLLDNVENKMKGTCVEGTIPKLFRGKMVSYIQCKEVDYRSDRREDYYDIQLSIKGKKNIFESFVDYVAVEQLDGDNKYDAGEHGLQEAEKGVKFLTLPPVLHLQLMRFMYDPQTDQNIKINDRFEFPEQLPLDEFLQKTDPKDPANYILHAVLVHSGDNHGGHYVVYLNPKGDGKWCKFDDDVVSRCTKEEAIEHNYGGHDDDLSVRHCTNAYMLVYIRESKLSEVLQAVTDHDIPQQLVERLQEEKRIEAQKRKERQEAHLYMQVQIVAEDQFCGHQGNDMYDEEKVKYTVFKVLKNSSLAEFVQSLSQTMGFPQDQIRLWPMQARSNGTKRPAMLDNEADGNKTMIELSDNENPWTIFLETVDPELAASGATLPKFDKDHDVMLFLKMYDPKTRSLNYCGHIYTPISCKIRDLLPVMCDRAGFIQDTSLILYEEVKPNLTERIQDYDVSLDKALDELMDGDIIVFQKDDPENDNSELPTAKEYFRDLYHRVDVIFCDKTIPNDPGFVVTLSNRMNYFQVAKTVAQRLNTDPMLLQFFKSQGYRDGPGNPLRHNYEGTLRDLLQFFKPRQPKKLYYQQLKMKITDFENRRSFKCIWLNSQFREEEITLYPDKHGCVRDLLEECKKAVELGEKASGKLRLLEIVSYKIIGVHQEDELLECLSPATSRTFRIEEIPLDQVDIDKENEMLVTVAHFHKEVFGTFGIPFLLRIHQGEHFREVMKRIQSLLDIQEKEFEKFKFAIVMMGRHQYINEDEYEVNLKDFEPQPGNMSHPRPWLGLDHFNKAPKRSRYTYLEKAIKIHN

One experiment has as its target full-length USP7 (Homo sapiens (Human), UniProt Q93009). Put plainly: Enzymatic assay to determine IC50 of USP7 inhibitors (Ubiquitin-Rhodamine 110 cleavage). The format is biochemical. The settings on record: 0.5 nM USP7, 0.5 μM Ubiquitin-Rhodamine 110, 45 min at 37° C. A digest of the protocol:
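Enzyme: 0.5 nM full-length USP7 in HEPES pH 7.5 buffer with NaCl, DTT, BSA and Tween20, given 15 min at room temperature with DTT before compounds were added.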
The pIC50 is the negative decadic logarithm of the IC50, by convention in mol/L. A higher pIC50 goes with a low IC50. On to `CN[C@@H]1CN(C(=O)c2c(C)cc(C(F)(F)F)nc2-c2ccnc3cc(CN4C(=O)C5C(C4=O)C5(C)C)sc23)C[C@H]1C` (stereo partly drawn) [Example 168, 6,6-dimethyl-3-((7-(4-methyl-3-((3R,4S)-3-methyl-4-(methylamino)pyrrolidine-1-carbonyl)-6-(trifluoromethyl)pyridin-2-yl)thieno[3,2-b]pyridin-2-yl)methyl)-3-azabicyclo[3.1.0]hexane-2,4-dione hydrochloride], for which the pIC50 is over 6.30.

The compound `Cc1cc(C(F)(F)F)nc(-c2ccnc3cc(CN4C(=O)C5C(C4=O)C5(C)C)sc23)c1C(=O)N1CCC2(CCCN2)C1` (stereo not shown) [Example 71, 6,6-dimethyl-3-((7-(4-methyl-3-(1,7-diazaspiro[4.4]nonane-7-carbonyl)-6-(trifluoromethyl)pyridin-2-yl)thieno[3,2-b]pyridin-2-yl)methyl)-3-azabicyclo[3.1.0]hexane-2,4-dione dihydrochloride] gave a pIC50 of over 6.30.

In turn, `Cc1cc(C(F)(F)F)nc(-c2ccnc3cc(CN4C(=O)C5C(C4=O)C5(C)C)sc23)c1NC1CCNC1` (stereo not shown) [Example 18, 6,6-dimethyl-3-((7-(4-methyl-3-(pyrrolidin-3-ylamino)-6-(trifluoromethyl)pyridin-2-yl)thieno[3,2-b]pyridin-2-yl)methyl)-3-azabicyclo[3.1.0]hexane-2,4-dione 2,2,2-trifluoroacetate] gave a pIC50 of over 6.30.

`Cc1cc(C(F)(F)F)nc(-c2ccnc3cc(CN4C(=O)C5C(C4=O)C5(C)C)sc23)c1C(=O)N1CC[C@H](CF)C1` (stereo partly drawn) [Example 105, 3-((7-(3-((S)-3-(fluoromethyl)pyrrolidine-1-carbonyl)-4-methyl-6-(trifluoromethyl)pyridin-2-yl)thieno[3,2-b]pyridin-2-yl)methyl)-6,6-dimethyl-3-azabicyclo[3.1.0]hexane-2,4-dione hydrochloride] had a pIC50 of over 6.30.

Consider `Cc1cc(C(F)(F)F)nc(-c2ccnc3cc(CN4C(=O)C5C(C4=O)C5(C)C)sc23)c1C(=O)N1[C@@H](C)CNC[C@@H]1C` (stereo partly drawn) [Example 141, 3-((7-(3-((2S,6S)-2,6-dimethylpiperazine-1-carbonyl)-4-methyl-6-(trifluoromethyl)pyridin-2-yl)thieno[3,2-b]pyridin-2-yl)methyl)-6,6-dimethyl-3-azabicyclo[3.1.0]hexane-2,4-dione 2,2,2-trifluoroacetate], for which the pIC50 was over 6.30.

With `Cc1c(Cl)cc(-c2ccnc3cc(CN4C(=O)C5C(C4=O)C5(C)C)sc23)n1C[C@@H]1CNCCO1` (stereo partly drawn) [Example 162, 3-((7-(4-chloro-5-methyl-1-(((S)-morpholin-2-yl)methyl)-1H-pyrrol-2-yl)thieno[3,2-b]pyridin-2-yl)methyl)-6,6-dimethyl-3-azabicyclo[3.1.0]hexane-2,4-dione hydrochloride], the pIC50 is over 6.30.

For the compound `Cc1nc(C(F)(F)F)cc(-c2ccnc3cc(CN4C(=O)C5C(C4=O)C5(C)C)sc23)c1NC(=O)c1cccnc1` (stereo not shown) [Example 63, N-(4-(2-((6,6-dimethyl-2,4-dioxo-3-azabicyclo[3.1.0]hexan-3-yl)methyl)thieno[3,2-b]pyridin-7-yl)-2-methyl-6-(trifluoromethyl)pyridin-3-yl)nicotinamide 2,2,2-trifluoroacetate], the pIC50 was under 5.00.

`Cc1cc(C#N)nc(-c2ccnc3cc(CN4C(=O)C5C(C4=O)C5(C)C)sc23)c1C(=O)N1CCN(C)C[C@@H]1C` (stereo partly drawn) [Example 52, 6-(2-((6,6-dimethyl-2,4-dioxo-3-azabicyclo[3.1.0]hexan-3-yl)methyl)thieno[3,2-b]pyridin-7-yl)-5-((S)-2,4-dimethylpiperazine-1-carbonyl)-4-methylpicolinonitrile dihydrochloride] gave a pIC50 of over 6.30.

For `Cc1cc(Cl)nc(-c2ccnc3cc(CN4C(=O)C5C(C4=O)C5(C)C)sc23)c1N1CCCNC1=O` (stereo not shown) [Example 121, 3-((7-(6-chloro-4-methyl-3-(2-oxotetrahydropyrimidin-1(2H)-yl)pyridin-2-yl)thieno[3,2-b]pyridin-2-yl)methyl)-6,6-dimethyl-3-azabicyclo[3.1.0]hexane-2,4-dione 2,2,2-trifluoroacetate], the negative-log IC50 (pIC50) was 6.00 to 6.30.

The compound `Cc1cc(C(F)(F)F)nc(-c2ccnc3cc(CN4C(=O)N(C)C5(CC5)C4=O)sc23)c1NC1CCNC1` (racemic) [Example 145, 4-methyl-6-((7-(4-methyl-3-(pyrrolidin-3-ylamino)-6-(trifluoromethyl)pyridin-2-yl)thieno[3,2-b]pyridin-2-yl)methyl)-4,6-diazaspiro[2.4]heptane-5,7-dione dihydrochloride] gave a pIC50 of over 6.30.

`Cc1cc(C(F)(F)F)nc(-c2ccnc3cc(CN4C(=O)C5C(C4=O)C5(C)C)sc23)c1C(=O)N1C[C@@H](C)[C@H](N)C1` (stereo partly drawn) [Example 107, 3-((7-(3-((3S,4R)-3-amino-4-methylpyrrolidine-1-carbonyl)-4-methyl-6-(trifluoromethyl)pyridin-2-yl)thieno[3,2-b]pyridin-2-yl)methyl)-6,6-dimethyl-3-azabicyclo[3.1.0]hexane-2,4-dione hydrochloride]: the pIC50 is over 6.30.

For `Cc1cc(C#N)nc(-c2ccnc3cc(CN4C(=O)C5C(C4=O)C5(C)C)sc23)c1C(=O)N1CCNCC1` (stereo not shown) [Example 55, 6-(2-((6,6-dimethyl-2,4-dioxo-3-azabicyclo[3.1.0]hexan-3-yl)methyl)thieno[3,2-b]pyridin-7-yl)-4-methyl-5-(piperazine-1-carbonyl)picolinonitrile hydrochloride], the pIC50 is over 6.30.

As for `Cc1cc(C(F)(F)F)nc(-c2ccnc3cc(CN4C(=O)C5C(C4=O)C5(C)C)sc23)c1C(=O)N1CCOCC1` (stereo not shown) [Example 84, 6,6-dimethyl-3-((7-(4-methyl-3-(morpholine-4-carbonyl)-6-(trifluoromethyl)pyridin-2-yl)thieno[3,2-b]pyridin-2-yl)methyl)-3-azabicyclo[3.1.0]hexane-2,4-dione hydrochloride], the pIC50 was 6.00 to 6.30.

On to `Cc1cc(Cl)nc(-c2ccnc3cc(CN4C(=O)C5C(C4=O)C5(C)C)sc23)c1NC1CC2(CNC2)C1` (stereo not shown) [Example 131, 3-((7-(3-((2-azaspiro[3.3]heptan-6-yl)amino)-6-chloro-4-methylpyridin-2-yl)thieno[3,2-b]pyridin-2-yl)methyl)-6,6-dimethyl-3-azabicyclo[3.1.0]hexane-2,4-dione hydrobromide], for which the negative-log IC50 (pIC50) was over 6.30.

The experiment is the same for the next values; noted with them: at 1 μM of the test compound; given where IC50 not determined yet; read-out: percent value of inhibition of USP7 activity.
One may read the inhibition as the percentage by which the read-out fell short of the control. For the compound `Cc1cc(C(F)(F)F)nc(-c2ccnc3cc(CN4C(=O)C5C(C4=O)C5(C)C)sc23)c1CN1CCOCC1=O` (stereo not shown) [Example 38, 6,6-dimethyl-3-((7-(4-methyl-3-((3-oxomorpholino)methyl)-6-(trifluoromethyl)pyridin-2-yl)thieno[3,2-b]pyridin-2-yl)methyl)-3-azabicyclo[3.1.0]hexane-2,4-dione hydrochloride], the inhibition at 1 µM is under 20%.

Turning to `Cc1cc(C(F)(F)F)nc(-c2ccnc3cc(CN4C(=O)C5C(C4=O)C5(C)C)sc23)c1CN1CCNCC1=O` (stereo not shown) [Example 40, 6,6-dimethyl-3-((7-(4-methyl-3-((2-oxopiperazin-1-yl)methyl)-6-(trifluoromethyl)pyridin-2-yl)thieno[3,2-b]pyridin-2-yl)methyl)-3-azabicyclo[3.1.0]hexane-2,4-dione dihydrochloride], the inhibition at 1 µM lay in the range of 20 to 49%.

As to `Cc1cc(Cl)cc(-c2ccnc3nc(CN4C(=O)C5C(C4=O)C5(C)C)sc23)c1O[C@H]1CCCNC1` (stereo partly drawn) [Example 151, 3-((7-(5-chloro-3-methyl-2-(((S)-piperidin-3-yl)oxy)phenyl)thiazolo[4,5-b]pyridin-2-yl)methyl)-6,6-dimethyl-3-azabicyclo[3.1.0]hexane-2,4-dione dihydrochloride], the inhibition at 1 µM is under 20%.

Still in this experiment, the particulars now being: read-out: percent value of inhibition of USP7 activity.
As to `CCc1nc(C(F)(F)F)cc(-c2ccnc3cc(CN4C(=O)C5C(C4=O)C5(C)C)sc23)c1NC(=O)C1CCNCC1` (stereo not shown) [Example 33, N-(4-(2-((6,6-dimethyl-2,4-dioxo-3-azabicyclo[3.1.0]hexan-3-yl)methyl)thieno[3,2-b]pyridin-7-yl)-2-ethyl-6-(trifluoromethyl)pyridin-3-yl)piperidine-4-carboxamide 2,2,2-trifluoroacetate], the inhibition at 1 µM was under 20%.

As for `Cc1cc(Cl)nc(-c2ccnc3cc(CN4C(=O)C5C(C4=O)C5(C)C)sc23)c1C(=O)N1CCNCC1` (stereo not shown) [Example 135, 3-((7-(6-chloro-4-methyl-3-(piperazine-1-carbonyl)pyridin-2-yl)thieno[3,2-b]pyridin-2-yl)methyl)-6,6-dimethyl-3-azabicyclo[3.1.0]hexane-2,4-dione 2,2,2-trifluoroacetate], the inhibition at 1 µM was under 20%.

Regarding `CC1(C)C2C(=O)N(Cc3cc4nccc(-c5cccn5CC5CNCCO5)c4s3)C(=O)C21` (stereo not shown) [Example 9, 6,6-dimethyl-3-((7-(1-(morpholin-2-ylmethyl)-1H-pyrrol-2-yl)thieno[3,2-b]pyridin-2-yl)methyl)-3-azabicyclo[3.1.0]hexane-2,4-dione 2,2,2-trifluoroacetate], the inhibition at 1 µM is under 20%.

With `Cc1nc(C#N)cc(-c2ccnc3cc(CN4C(=O)C5C(C4=O)C5(C)C)sc23)c1NC(=O)C1CCN1` (stereo not shown) [Example 27, N-(6-cyano-4-(2-((6,6-dimethyl-2,4-dioxo-3-azabicyclo[3.1.0]hexan-3-yl)methyl)thieno[3,2-b]pyridin-7-yl)-2-methylpyridin-3-yl)azetidine-2-carboxamide 2,2,2-trifluoroacetate], the inhibition at 1 µM is under 20%.

Take `CC1(C)C2C(=O)N(Cc3cc4nccc(-c5ncc[nH]5)c4s3)C(=O)C21` (stereo not shown) [Example 146, 3-((7-(1H-imidazol-2-yl)thieno[3,2-b]pyridin-2-yl)methyl)-6,6-dimethyl-3-azabicyclo[3.1.0]hexane-2,4-dione 2,2,2-trifluoroacetate]: the inhibition at 1 µM was under 20%.
